Consider 5 compounds from patent publication US20240325412A1, “COMBINATIONS” (Recurium IP Holdings, LLC, priority 2021, published 2024).

In one assay the test system is MOLM-13 cells. Briefly: CellTiter-Glo Luminescent Cell Viability Assay, MOLM-13. Format: cell-based. The settings on record: Homo sapiens, 72 h, Compound (1A) 4 nM, Compound (B) 12 nM alone / 120 nM in combinations, Azacitidine 300 nM. The procedure: (§1) Cell proliferation was measured using the CellTiter-Glo® Luminescent Cell Viability Assay. The assay involved the addition of a single reagent (CellTiter-Glo® Reagent) directly to cells cultured in serum-supplemented medium. OPM-2, MOLM-13 and HL-60 cells were cultured according to ATCC recommendations and were seeded at 10,000 cells per well.
(§2) Compound (1 A), Compound (B) and Dexamethasone or Azacitidine were prepared as a DMSO stock solution (10 mM). For OPM-2 cell line, compounds were tested in triplicate using Dexamethasone; MOLM-13 and HL-60 cell lines compound were tested in triplicate using Azacitidine. Plates were incubated at 37° C., 5% CO2 for 72 h and then equilibrated at room temperature (RT) for approximately 30 min. An equal-volume amount of CellTiter-Glo® Reagent (100 μL) was added to each well. Plates were mixed for 2 min on an orbital shaker to induce cell lysis and then incubated at RT for 10 min to stabilize the luminescent signal. Luminescence (RLU (relative light unit)) was recorded using a SpectraMAX, M5e plate reader according to CellTiter-Glo protocol. Percent inhibition was calculated using the following formula: % inhibition=(RLU*100/(RLU of the cell background)).
Background: Cellular ATP, detected with luciferase, serves as a proxy for viable cell number.

In assay [1] the test system is HL-60 cells. The assay is described as follows: CellTiter-Glo Luminescent Cell Viability Assay, HL-60. Format: cell-based. The settings on record: Homo sapiens, 72 h, Compound (1A) 40 nM, Compound (B) 120 nM, Azacitidine 1500 nM, alone or combined. The protocol: as §1, §2
For assay [2], the system named is HL-60 cells. Briefly: HL-60 leukemia xenograft model. Type of assay: in vivo, Mice. The settings on record: HL-60 xenograft, Compound (1A) 25 mg/kg p.o. qd×21, Compound (B) 30 mg/kg p.o., azacitidine 1 mg/kg IP 5 days on 2 days off. The procedure:
Mice were inoculated with HL-60 cells subcutaneously on the right flank with the single cell suspension of 95% viable tumor cells (1×10^7) in 100 μL IMDM Matrigel mixture (1:1 ratio) without serum for the tumor development. The treatment was started when the mean tumor size reached approximately 214 mm^3, with individual tumor size ranging from 185-245 mm^3. Animals were randomly distributed into treatment groups of 10 animals each and dosed with vehicle and indicated compounds at indicated dosage and frequency shown in FIG. 5 and Table 4. In FIG. 5, the bottom line is Compound (1A) 25 mg/kg p.o. qd×21+Compound (B) 30 mg/kg p.o. pd×21+azacitidine 1 mg/kg IP 5 days on 2 days off×3 cycle, the second from the bottom line is Compound (1A)+Compound (B), the third from the bottom line is Compound (1A)+azacytidine, the fourth from the bottom line is Compound (1A), the top line is Vehicle, the second from the top line is Compound (B), and the remaining two lines are azacytidine (indicated with triangles) and Compound (B)+azacytidine (indicated with diamonds). Tumor volumes were evaluated twice per week to calculate tumor volume over time, and mice were weighed twice per week as a surrogate for signs of toxicity. Tumor growth inhibition (TGI) was calculated using the following equation TGI=(1−(Td−T0)/(Cd−C0))×100%. Td and Cd are the mean tumor volumes of the treated and control animals, and T0 and C0 are the mean tumor volumes of the treated and control animals at the start of the experiment. The tumor regression was defined as individual tumor volume (TV) decrease (terminal TV compared to initial TV). FIG. 5 and Table 4 illustrate that single agent, double agent and triple treatment of Compound (1A) at 25 mg/kg, Compound (B) at 30 mg/kg and azacitidine at 1 mg/kg.

For assay [3], the system named is OPM-2 cells. The assay is described as follows: OPM-2 multiple myeloma xenograft model. Type of assay: in vivo, Mice. The settings on record: OPM-2 xenograft, Compound (1A) 25 mg/kg, Compound (B) 30 mg/kg, Bortezomib 0.5 mg/kg (text: 100 and 60 mg/kg p.o. qd×21, IP BIW). The procedure:
Mice were inoculated with OPM-2 cells subcutaneously on the right flank with the single cell suspension of 95% viable tumor cells (1×10^7) in 100 μL IMDM Matrigel mixture (1:1 ratio) without serum for the tumor development. The treatment was started when the mean tumor size reached approximately 200 mm^3, with individual tumor size ranging from 185-225 mm^3. Animals were randomly distributed into treatment groups of 10 animals each and dosed with vehicle and indicated compounds at indicated dosage and frequency shown in FIG. 6 and Table 5. In FIG. 6, the bottom line is Compound (1A) 100 mg/kg p.o. qd×21+Compound (B) 60 mg/kg p.o. pd×21+Bortezomib 0.5 mg/kg IP BIW (twice a week)×3, the second from the bottom line is Compound (1A)+Compound (B), the third from the bottom line is Compound (B)+Bortezomib, the fourth from the bottom line is Compound (B), the top line is Vehicle, the second from the top is Bortezomib, the third from the top line (indicted with squares) is Compound (1A) and the fourth from the top line is Compound (1A)+Bortezomib. Tumor volumes were evaluated twice per week to calculate tumor volume over time, and mice were weighed twice per week as a surrogate for signs of toxicity. Tumor growth inhibition (TGI) was calculated using the following equation TGI=(1−(Td−T0)/(Cd−C0))×100%. Td and Cd are the mean tumor volumes of the treated and control animals, and T0 and C0 are the mean tumor volumes of the treated and control animals at the start of the experiment. The tumor regression was defined as individual tumor volume (TV) decrease (terminal TV compared to initial TV). FIG. 6 and Table 5 illustrate that single agent, double agent, and triple treatment of Compound (1A) at 100 mg/kg, Compound (B) at 60 mg/kg and bortezomib at 0.5 mg/kg.

The subject of assay [4] is OPM-2 cells. The assay is described as follows: CellTiter-Glo Luminescent Cell Viability Assay, OPM-2. Format: cell-based. The settings on record: Homo sapiens, 72 h, Compound (1A) 1500 nM, Compound (B) 300 nM, Dexamethasone 100 nM, alone or combined. The protocol:
as §1, §2

The next assay deals with KMS-12-BM cells. The assay is described as follows: KMS-12-BM multiple myeloma xenograft model. Format: in vivo, Mice. The settings on record: KMS-12-BM xenograft, Compound (1A) 25 mg/kg, Compound (B) 30 mg/kg, Dexamethasone 1 mg/kg (text: 100 and 60 mg/kg). The procedure:
Mice were inoculated with KMS-12-BM cells subcutaneously on the right flank with the single cell suspension of 95% viable tumor cells (1×10^7) in 100 μL IMDM Matrigel mixture (1:1 ratio) without serum for the tumor development. The treatment was started when the mean tumor size reached approximately 193 mm^3, with individual tumor size ranging from 185-220 mm^3. Animals were randomly distributed into treatment groups of 10 animals each and dosed with vehicle and indicated compounds at indicated dosage and frequency shown in FIG. 7 and Table 6. In FIG. 7, the bottom line is Compound (1A) 100 mg/kg p.o. qd×21+Compound (B) 60 mg/kg p.o. pd×21+Dexamethasone 1 mg/kg IP 5 days on 2 days off ×3, the second from the bottom line is Compound (1A)+Compound (B), the third from the bottom line is Compound (B)+Dexamethasone, the fourth from the bottom line (indicated with triangles) is Compound (B), the top line is Vehicle, the second from the top line is Dexamethasone, the third from the top line is Compound (1A) and the remaining line is Compound (1A)+Dexamethasone. Tumor volumes were evaluated twice per week to calculate tumor volume over time, and mice were weighed twice per week as a surrogate for signs of toxicity. Tumor growth inhibition (TGI) was calculated using the following equation TGI=(1−(Td−T0)/(Cd−C0))×100%. Td and Cd are the mean tumor volumes of the treated and control animals, and T0 and C0 are the mean tumor volumes of the treated and control animals at the start of the experiment. The tumor regression was defined as individual tumor volume (TV) decrease (terminal TV compared to initial TV). The percent tumor regression was calculated using the formula: (1−(Td/T0))×100%.

In assay [5] the test system is MDA-MB-436 cells (TNBC breast cancer cell line). The assay is described as follows: MDA-MB-436 triple negative breast cancer xenograft model. Format: in vivo, Mice. The settings on record: MDA-MB-436 xenograft; Compound (1A) 200 mg/kg p.o. qd×40, Compound (B) 60 mg/kg p.o. qd×40; day 40. The procedure:
Mice were inoculated with MDA-MB-436 cells (TNBC breast cancer cell line) subcutaneously on the right flank with the single cell suspension of 95% viable tumor cells (1×10^7) in 100 μL DMDM Matrigel mixture (1:1 ratio) without serum for the tumor development. The treatment was started when the mean tumor size reached approximately 210 mm^3 for each model (with individual tumor volumes between 180-240 mm^3). Animals were randomly distributed into treatment groups of 8 animals each and dosed with vehicle and indicated compounds at indicated dosage and frequency shown in FIG. 8 and Table 7. In FIG. 8, the top line (indicated with circles) is Vehicle control, the second from the top line (indicated with diamonds) is Compound (1A) (200 mg/kg 10 mL/kg p.o. qd×40) and the third line from the top (indicated with triangles) Compound (B) (60 mg/kg 10 mL/kg p.o. qd×40). The bottom line (indicated with circles) is Compound (1A) (200 mg/kg 10 mL/kg p.o. qd×40)+Compound (B) (60 mg/kg 10 mL/kg p.o. qd×40). Tumor volumes were evaluated twice per week to calculate tumor volume over time, and mice were weighed twice per week as a surrogate for signs of toxicity. Tumor growth inhibition (TGI) was calculated using the following equation TGI=(1−(Td−T0)/(Cd−C0))×100%. […]

Consider `Nc1ncn([C@@H]2O[C@H](CO)[C@@H](O)[C@H]2O)c(=O)n1` [Azacitidine, reference compound], for which the inhibition at 0.3 µM with MOLM-13 cells was 10.7%. Besides, the inhibition at 1.5 µM in the assay on HL-60 cells [1] was 2.3%. In the assay with HL-60 cells [2], the “TGI % (DAY 18)” value worked out at 16%.
Consider `CC(C)C[C@H](NC(=O)[C@H](Cc1ccccc1)NC(=O)c1cnccn1)B(O)O` [Bortezomib, reference compound], for which the “TGI % (DAY 17)” value in the assay with OPM-2 cells [3] is recorded as 0%.
In the case of `CC1(C)CCC(CN2CCN(c3ccc(C(=O)NS(=O)(=O)c4ccc(NC[C@H]5CC[C@](C)(O)CC5)c([N+](=O)[O-])c4)c(Oc4cnc5[nH]ccc5c4)c3)CC2)=C(C23CC(C(F)F)(C2)C3)C1` [Compound (1A)], the inhibition at 1.5 µM with OPM-2 cells [4] is 43%. The inhibition at 0.004 µM in the assay on MOLM-13 cells worked out at 35.4%. For the same compound, the inhibition at 0.04 µM in the assay with HL-60 cells [1] was determined as 20.4%. Besides, in the assay on HL-60 cells [2], the “TGI % (DAY 18)” value was 25%. The “TGI % (DAY 17)” value with OPM-2 cells [3] worked out at 18%. Also, in the assay on KMS-12-BM cells, the “TGI % (DAY 14)” value was determined as 62.8%. The same compound gave a TGI % in assay [5] of 60%.
For `C=CCn1c(=O)c2cnc(Nc3ccc(N4CCN(C)CC4)cc3)nc2n1-c1ccc2c(n1)[C@@](O)(CC)CC2` [Compound (B)], the inhibition at 0.3 µM in the assay with OPM-2 cells [4] was 4.3%. Moreover, the inhibition at 0.012 µM in the assay with MOLM-13 cells was determined as 38.6%. In addition, in the assay on HL-60 cells [1], the inhibition at 0.12 µM is 5.6%. In addition, the “TGI % (DAY 18)” value with HL-60 cells [2] was 6%. In addition, the “TGI % (DAY 17)” value in the assay with OPM-2 cells [3] came out at 33%. Moreover, in the assay on KMS-12-BM cells, the “TGI % (DAY 14)” value turned out to be 74.5%. Moreover, the TGI % in assay [5] is 55%.
`C[C@@H]1C[C@H]2[C@@H]3CCC4=CC(=O)C=C[C@]4(C)[C@@]3(F)[C@@H](O)C[C@]2(C)[C@@]1(O)C(=O)CO` [Dexamethasone, reference compound]: the inhibition at 0.1 µM in the assay on OPM-2 cells [4] is 32%. Further, the “TGI % (DAY 14)” value in the assay with KMS-12-BM cells is 22.5%.

The term inhibition denotes the share of the control response that was lost under treatment.
